# Reference: paper PMC5955599, “The HTLV-1 gp21 fusion peptide inhibits antigen specific T-cell activation in-vitro and in mice” (PLoS Pathogens, 2018)
# “Also recorded” adds a separate entry of the source.
# Legend:
# [1] = tested on: MOG35-55–antigen specific T-cells; experiment: In-vitro T-cell proliferative response (H3-thymidine incorporation); assay type: cell-based, mouse (C57Bl/6J); conditions: peptide at 10μM; for inhibition of T-cell proliferation, activation by PMA and Ionomycin: 50ng/mL PMA with 1μM ionomycin; for inhibition of T-cell proliferation, activation by antibodies against CD3 and CD28: CD3 and CD28 antibodies 2μg/ml; for inhibition of T-cell proliferation, activation by MOG35-55 presenting APCs: irradiated MOG35-55 presenting APCs, mean inhibition of proliferation
# [2] = tested on: MOG35-55–antigen specific T-cells; experiment: T-bet and Gata3 expression detected by FACS; assay type: cell-based, mouse (C57Bl/6J); conditions: peptide at 10μM, APC activation, n = 3
# Experimental: (A-B) MOG35-55–antigen specific T-cells were activated by irradiated MOG35-55 presenting APCs, in the presence of the HTLV FP at 10μM. Total RNA was isolated 24 hours following activation and mRNA expression levels were determined by qRT-PCR. The values of each gene were normalized to Rpl13a as a housekeeping control. The HTLV FP reduces TBX21 (T-bet) mRNA expression and elevates GATA3 mRNA expression. The data is presented as arbitrary units. n≥3. (C-H) MOG35-55–antigen specific T-cells were activated by irradiated MOG35-55 presenting APCs, in the presence of either HTLV or HIV FP at 10μM. Samples were fixed in 4% PFA and stained with anti T-bet-APC and anti Gata3-FITC antibodies (C-D) 24, (E-F) 48 and (G-H) 72 hours following activation. Each time point is represented as cell count vs. APC or FITC fluorescence histogram. Analysis was performed using LSR-II flow cytometer (BD) and FlowJo cell analysis software (FlowJo, LLC). The HTLV FP reduces T-bet expression and elevates Gata3 expression. n = 3. One-way ANOVA was used for statistical analysis. ns, not significant; *P<0.05;** P<0.01.
# Antigen-specific T-cells were plated onto round 12-well plates (10^6 cells/ well) and activated with 5x10^5 irradiated (25 gray) APC and 5μg/ml of MOG p35-55 in the presence or absence of relevant peptides. Cells were washed with PBS, blocked (5% Donkey serum, 2% BSA and 0.1% Triton in PBS) and fixed with 4% Paraformaldehyde (PFA) 24 hour following activation. Cells were then stained with Gata3-FITC and T-bet-APC fluorochrome-labeled monoclonal mouse antibodies (purchased from Miltenyi Biotec) according to Miltenyi Biotec protocols. Samples were then collected using LSR-II flow cytometer and analyzed with FlowJo cell analysis software.
# [3] = Circular dichroism spectroscopy with CDNN secondary structure analysis; assay type: physicochemical; conditions: 25μM peptide in 5mM HEPES buffer with 1% LPC; for Antiparallel β-Sheet / Parallel β-Sheet / Random-coil / α-Helix / β-turn: CD 190–260 nm, CDNN, relative amount of structure out of 100%; for secondary structure in a membrane mimetic environment: CD
# Experimental: Fig 6 Detection of the immune modulatory region within the HTLV FP. (A) Sequences of shorter peptides derived from the full length HTLV FP. (B) MOG35-55–antigen specific T-cells were activated by APCs in the presence of HTLV FP derived peptides at 10μM and proliferative responses were assessed as described above. […] The data is presented as mean inhibition of proliferation. n = 12. (C) MOG35-55–antigen specific T cells were activated by either (i) irradiated MOG35-55 presenting APCs (black), (ii) antibodies against CD3 and CD28 (white), or (iii) PMA and Ionomycin (gray) in the presence of HTLV FP5-13 and HIV FP5-13 at 10μM. Proliferative responses were assessed as described above. The HTLV FP inhibits T-cell proliferation induced either through the TCR or downstream from the TCR with equal potencies. The data is presented as mean inhibition of proliferation. n = 12. […] CD spectra were measured at 25μM in 5mM HEPES buffer containing 1% lyso-phosphatidylcholine (LPC). […] (E) MOG35-55–antigen specific T-cells were activated by APCs in the presence of HTLV FP5-13 D/L enantiomers at 10μM and proliferative responses were assessed as described above. Both HTLV FP5-13 enantiomers inhibit T-cells proliferation with equal potencies. The data is presented as mean inhibition of proliferation. n = 12. One-way ANOVA was used for statistical analysis. *P<0.05;**P<0.01;***P<0.001.
Sequence,"inhibition of T-cell proliferation, activation by PMA and Ionomycin ([1]; n = 12)","inhibition of T-cell proliferation, activation by antibodies against CD3 and CD28 ([1]; n = 12)","inhibition of T-cell proliferation, activation by MOG35-55 presenting APCs ([1]; n = 12)",Antiparallel β-Sheet [3] [%],Parallel β-Sheet [3] [%],Random-coil [3] [%],α-Helix [3] [%],β-turn [3] [%],secondary structure in a membrane mimetic environment [3],further results
"AVGIGALFLGFLGAAGSTMGARSMTLTVQARQL [HIV FP, HIV-1 gp41 fusion peptide, HXB2 isolate, reference compound]",decreased significantly when activation was downstream of TCRα and β,decreased significantly when activation was downstream of TCRα and β,inhibits T-cell proliferation with the same potency as the HIV FP,–,–,–,–,–,–,"Gata3 expression (protein), 24 hours ([2]; 24 hours following activation): had no effect on Gata3 expression; T-bet expression (protein), 24 hours ([2]; 24 hours following activation): had no effect on T-bet expression; Gata3 expression (protein), 48 hours ([2]; 48 hours following activation): had no effect on Gata3 expression; T-bet expression (protein), 48 hours ([2]; 48 hours following activation): had no effect on T-bet expression; Gata3 expression (protein), 72 hours ([2]; 72 hours following activation): had no effect on Gata3 expression"
"AVGMVIFLLVLAIMAMTASVTAAATLVKQHATA [JDV FP, Jembrana disease virus fusion peptide, Tabanan/87 isolate]",–,–,showed no inhibitory activity,–,–,–,–,–,–,–
"AVWLVSALA [HTLV FP5-13, segment 5-13 of the HTLV FP]",inhibited all three levels of activation,inhibited all three levels of activation,–,6.7,5.2,17.3,54,16.8,exhibited an α-helical structure,"inhibition of T-cell proliferation, activation by MOG35-55 presenting APCs ([1]; n = 12, 10 µM): inhibited all three levels of activation; also recorded: inhibit T-cell proliferation with higher potency than HTLV FP9-22 and HTLV FP14-22; also recorded: inhibited T-cell proliferation with the same potency"
"GALFLGFLG [HIV FP5-13, reference compound]",significantly diminished when T-cells were activated using CD3 and CD28 antibodies or PMA and Ionomycin,significantly diminished when T-cells were activated using CD3 and CD28 antibodies or PMA and Ionomycin,–,–,–,–,–,–,–,–
"MGAGVAGGI [HTLV FP14-22, segment 14-22 of the HTLV FP]",–,–,higher potency than HTLV FP9-22 and HTLV FP14-22,27.7,11.7,32.5,11.2,17.1,found to be random coils,–
"VAALTLGLALSVGLTGINVAVSALSHQRLTSLI [BLV FP, bovine leukemia virus fusion peptide, Japanese isolate of BLV-1]",–,–,significantly stronger than the BLV FP,–,–,–,–,–,–,–
"VSALAMGAGVAGGI [HTLV FP9-22, segment 9-22 of the HTLV FP]",–,–,higher potency than HTLV FP9-22 and HTLV FP14-22,30.4,11.7,32.6,8.5,16.8,found to be random coils,–
